The values that follow come from ChEMBL document CHEMBL1155836, “Discovery of imidazole carboxamides as potent and selective CCK1R agonists” (Bioorg Med Chem Lett, 2008).

Data set [1] can be described thus: Clearance in mouse at 1.0 mg/kg, iv and 10 mg/kg, po. It counts as ADME, organism-based. The conditions noted are these: in vivo.
Data set [2] has as its target T1, Gastrin/cholecystokinin type B receptor (Homo sapiens, UniProt P32239).
T1 sequence (P32239 whole entry): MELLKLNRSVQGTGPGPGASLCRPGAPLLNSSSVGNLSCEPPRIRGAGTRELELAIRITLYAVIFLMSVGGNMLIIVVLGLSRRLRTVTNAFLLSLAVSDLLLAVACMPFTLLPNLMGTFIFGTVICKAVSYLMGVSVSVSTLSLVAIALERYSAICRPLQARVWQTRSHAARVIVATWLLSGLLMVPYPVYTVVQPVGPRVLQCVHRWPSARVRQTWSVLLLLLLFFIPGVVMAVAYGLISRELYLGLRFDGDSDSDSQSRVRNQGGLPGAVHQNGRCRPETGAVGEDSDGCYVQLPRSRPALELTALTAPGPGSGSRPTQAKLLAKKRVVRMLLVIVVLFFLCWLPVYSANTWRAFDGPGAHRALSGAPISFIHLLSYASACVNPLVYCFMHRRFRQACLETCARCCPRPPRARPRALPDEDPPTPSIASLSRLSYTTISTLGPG
Description: Inhibition of human CCK2 receptor.

The target of data set [3] is T2, Cholecystokinin receptor type A (Homo sapiens, UniProt P32238).
T2 sequence (P32238 whole entry): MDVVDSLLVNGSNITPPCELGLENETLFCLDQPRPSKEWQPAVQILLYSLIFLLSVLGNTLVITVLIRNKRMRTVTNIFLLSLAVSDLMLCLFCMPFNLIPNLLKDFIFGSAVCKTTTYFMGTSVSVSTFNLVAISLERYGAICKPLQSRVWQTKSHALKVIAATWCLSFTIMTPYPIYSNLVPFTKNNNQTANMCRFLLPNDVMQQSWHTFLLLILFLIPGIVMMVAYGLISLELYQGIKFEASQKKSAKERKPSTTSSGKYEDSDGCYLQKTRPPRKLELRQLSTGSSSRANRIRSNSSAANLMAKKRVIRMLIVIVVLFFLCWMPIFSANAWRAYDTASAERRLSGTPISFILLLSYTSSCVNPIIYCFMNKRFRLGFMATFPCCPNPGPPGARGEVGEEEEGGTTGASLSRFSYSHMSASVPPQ
Briefly: Inhibition of human CCK1 receptor.

Data set [4] is described as follows: Volume of distribution in mouse at 1.0 mg/kg, iv and 10 mg/kg, po. It counts as ADME, organism-based. Particulars: in vivo.
Data set [5] is described as follows: Cmax in mouse at 1.0 mg/kg, iv and 10 mg/kg, po. It counts as ADME, organism-based. The conditions noted are these: in vivo.
Data set [6] can be described thus: Oral bioavailability in mouse at 10 mg/kg. It is filed as ADME, organism-based. Particulars: in vivo.
Data set [7] can be described thus: Half life in mouse at 1.0 mg/kg, iv and 10 mg/kg, po. It is filed as ADME, organism-based. Particulars: in vivo.
For data set [8], the target named is T2, Cholecystokinin receptor type A. Description: Agonist activity against human CCK1 receptor. It is filed as functional.
Data set [9] concerns Mus musculus. Description: Reduction in overnight food intake in CCK1 receptor deficient mouse at 10 mg/kg. It counts as functional, organism-based. Also noted: dose 10 mg/kg.
Data set [10] addresses T3, Gastrin/cholecystokinin type B receptor (Homo sapiens) (UniProt P32239).
T3 sequence (whole entry): T1 sequence (P32239 whole entry)
Description: Agonist activity against human CCK2 receptor assessed as receptor activation at 10000 nM. It counts as functional.

Data set [11] concerns Mus musculus. Briefly: Reduction in overnight food intake in wild-type mouse at 10 mg/kg. It is filed as functional, organism-based. Set-up: dose 10 mg/kg.
Data set [12] concerns the target T4, Cholecystokinin receptor type A (Homo sapiens) (UniProt P32238).
T4 sequence (whole entry): T2 sequence (P32238 whole entry)
Description: Agonist activity against human CCK1 receptor assessed as receptor activation at 10000 nM. It counts as functional.

For data set [13], the target named is T3, Gastrin/cholecystokinin type B receptor (Homo sapiens). Briefly: Inhibition of human CCK2 receptor at 10000 nM.
The target is the same in data set [14]. Description: Agonist activity against human CCK2 receptor. It is filed as functional.
For data set [15], the target named is Cholecystokinin receptor type A (Mus musculus, UniProt O08786). Briefly: Agonist activity against mouse CCK1 receptor. It is filed as functional.
Data set [16] relates to Mus musculus. Description: Gallbladder emptying activity in mouse assessed as reduction of gallbladder weight at 0.001 mg/kg, po. It counts as functional. Also noted: scale not given: the % may be the effect or the level left.
Data set [17] has as its system Mus musculus. Description: Reduction in overnight food intake in lean mouse at 0.3 mg/kg, po. It is filed as functional. Also noted: scale not given: the % may be the effect or the level left.
Data set [18] relates to Mus musculus. Briefly: Reduction in overnight food intake in lean mouse at 3 mg/kg, po. It counts as functional. Set-up: scale not given: the % may be the effect or the level left.

pEC50, pIC50: −log10 of the molar value. The source made the active and inactive calls. The calls are words filed in the database; no cut-off is given here.

Sequence of Cholecystokinin receptor type A (Mus musculus, UniProt O08786) (O08786 whole entry, looked up): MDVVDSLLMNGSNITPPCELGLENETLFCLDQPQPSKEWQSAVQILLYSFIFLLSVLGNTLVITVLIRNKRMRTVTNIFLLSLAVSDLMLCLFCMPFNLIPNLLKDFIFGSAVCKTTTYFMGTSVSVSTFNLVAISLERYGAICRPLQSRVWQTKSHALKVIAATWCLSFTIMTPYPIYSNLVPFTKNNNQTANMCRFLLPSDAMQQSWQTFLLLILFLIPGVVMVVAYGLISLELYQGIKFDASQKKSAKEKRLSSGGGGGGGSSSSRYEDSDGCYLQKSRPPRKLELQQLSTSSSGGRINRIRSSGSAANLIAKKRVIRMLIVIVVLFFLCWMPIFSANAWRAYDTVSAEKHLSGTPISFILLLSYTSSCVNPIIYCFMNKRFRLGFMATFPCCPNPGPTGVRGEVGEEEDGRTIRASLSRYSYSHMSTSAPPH

As for `CCOc1cccc(-n2cc(C(=O)N3CCN(c4cc(C(=O)O)c5ccccc5c4)CC3)nc2-c2ccc(F)cc2)c1`, the clearance in [1] is 6.4 mL/min/kg. Moreover, the pIC50 is less than 5.00 in [2] and 10.10 in data set [3]. The compound also showed a Vd in data set [4] of 0.73 L/kg. Also, the highest concentration (Cmax) in data set [5] worked out at 1100 nM. The bioavailability in data set [6] was 33%. In data set [7], this compound gave a half-life of 2.7 h. The pEC50 in data set [8] is 10.32.
`CCOc1cccc(-n2cc(C(=O)N3CCN(c4cc(C(=O)O)c5ccccc5c4)CC3)nc2-c2ccc(C)cc2)c1` [listing 1 of 2 here]: the outcome (with Mus musculus [9]; in data set [14]) was inactive. The Activity in [10] was less than 36%; in data set [12], 105%. Further, the result in the data set on Mus musculus [11] was Active. In addition, the inhibition in data set [13] was less than 24%.
The compound `CCOc1cccc(-n2cc(C(=O)N3CCN(c4cc(C(=O)O)c5ccccc5c4)CC3)nc2-c2ccc(C)cc2F)c1` [listing 1 of 2 here] came in with a clearance in [1] of 10.4 mL/min/kg. Besides, the pIC50 in data set [2] is less than 5.00; in [3], 10.22. For the same compound, the Vd in [4] was determined as 0.59 L/kg. In addition, in data set [5], the peak level (Cmax) was 820 nM. The compound also registered a bioavailability in [6] of 22%. The compound further gave a half-life in [7] of 1.7 h. Besides, the negative logarithm of the EC50 (pEC50) in data set [8] was 10.25.
Regarding `CCOc1cccc(-n2cc(C(=O)N3CCN(c4cnc5ccccc5c4)CC3)nc2-c2ccc(C)cc2)c1`, the pEC50 in data set [15] is 8.68.
Regarding `CCOc1cccc(-n2cc(C(=O)N3CCN(c4cc(C(=O)O)c5ccccc5c4)CC3)nc2-c2ccc(C)cc2F)c1` [listing 2 of 2 here], the result (in the data set with Mus musculus [9]; in data set [14]) was inactive. In addition, the Activity in data set [10] was less than 36%; in [12], 73%. Besides, the result in the data set with Mus musculus [11] was Active. The compound also displayed an inhibition in [13] of less than 24%.
In turn, `CCOc1cccc(-n2cc(C(=O)N3CCN(c4cc(C(=O)O)c5ccccc5c4)CC3)nc2-c2ccc(C)cc2)c1.O=C(O)C(F)(F)F` showed a pEC50 in data set [15] of 8.89. Moreover, the Activity with Mus musculus [16] worked out at 72%; in the data set with Mus musculus [17] it was 18%; in the data set on Mus musculus [18], 82%.
`O=C(O)C(F)(F)F.O=C(O)c1cc(N2CCN(C(=O)c3cn(-c4ccc5c(c4)OCCO5)c(-c4ccc(F)cc4)n3)CC2)cc2ccccc12` showed a pEC50 in data set [15] of 9.85. For the same compound, the Activity with Mus musculus [16] was determined as 88%; in the data set on Mus musculus [17], 16%; with Mus musculus [18], 96%.
On to `CCOc1cccc(-n2cc(C(=O)N3CCN(c4cc(C(=O)O)c5ccccc5c4)CC3)nc2-c2ccc(C)cc2F)c1.O=C(O)C(F)(F)F`, for which, in data set [15], the pEC50 was 9.52. Moreover, the values for the Activity with Mus musculus [16], with Mus musculus [17] and with Mus musculus [18] were 77%, 13% and 86%, respectively.
`CCOc1cccc(-n2cc(C(=O)N3CCN(c4cc(C(=O)O)c5ccccc5c4)CC3)nc2-c2ccc(C)cc2)c1` [listing 2 of 2 here] had a clearance in data set [1] of 5.3 mL/min/kg. Further, the pIC50 was less than 5.00 in data set [2] and 9.92 in data set [3]. For the same compound, the Vd in data set [4] is 0.47 L/kg. Further, the concentration in data set [5] peaked (Cmax) at 280 nM. The compound further registered a bioavailability in [6] of 7%. Further, in data set [7], the half-life is 3.5 h. The compound further had a negative-log EC50 (pEC50) in data set [8] of 10.03.
`CCOc1cccc(-n2cc(C(=O)N3CCN(c4cc(C(=O)O)c5ccccc5c4)CC3)nc2-c2ccc(F)cc2)c1.O=C(O)C(F)(F)F` showed a pEC50 in data set [15] of 8.82. Also, the Activity came out at 69% in the data set with Mus musculus [16] and 73% with Mus musculus [18].
For `CCOc1cccc(-n2cc(C(=O)N3CCN(c4cc(C(=O)O)c5ccccc5c4)CC3)nc2-c2ccc(F)cc2F)c1`, the pIC50 was less than 5.00 in [2] and 10.15 in data set [3]. Also, the Activity in data set [10] was less than 36%; in data set [12], 76%. In addition, in [13], the inhibition is less than 24%. Besides, in data set [14], the result was inactive. In addition, in [8], the pEC50 was 10.28.
Take `Cc1ccc(-c2nc(C(=O)N3CCN(c4cc(C(=O)O)c5ccccc5c4)CC3)cn2-c2ccc3c(c2)OCCO3)c(F)c1`: the pIC50 in [2] is less than 5.00; in data set [3] it was 10.52. Besides, the Activity in data set [10] is less than 36%; in [12] it was 71%. The inhibition in data set [13] is less than 24%. The outcome in data set [14] was inactive. The pEC50 in data set [8] was 10.11.

A word on the pIC50: it is the negative decadic logarithm of the IC50, by convention in mol/L. The Cmax is the peak of the concentration-time curve. For orientation: bioavailability means dose-corrected exposure relative to a reference, in per cent. In general, half-life refers to how long it takes for the measured level to halve. One may read the pEC50 as −log10 of the EC50, conventionally taken in molar units. As a reminder, the inhibition is the change of the read-out against control, counted positive when it falls.
